32 compounds from patent US9376418B2, “Substituted pyridine spleen tyrosine kinase (SYK) inhibitors” (Merck Sharp & Dohme Corp., priority 2012, dated 2016) can be followed below.

A value given as a limit tells only on which side of the number the result lay.

The target in the test is T1, recombinant human GST-SYK (Homo sapiens, UniProt P43405).
T1 construct: purchased Carna Biosciences 08-176
The experiment in a line: Homogeneous Time-Resolved Fluorescence (HTRF) assay for the recombinant human Syk enzyme. Type of test: biochemical. As to conditions: HTRF assay, recombinant human GST-SYK; IC50 given as class symbols; read-out: rhSYK Activity. The gist of the method:
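GST-hSYK ([…]) was preincubated with inhibitor (0.1% DMSO final) for 10 minutes at room temperature in 15 mM Tris-HCl pH 7.5, 0.01% tween 20, 2 mM DTT. Biotinylated peptide (250 nM), 5 mM magnesium and 25 μM ATP started a 45-minute room-temperature reaction, read by time-resolved fluorescence.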
For orientation: TR-FRET usually uses a lanthanide donor and a delayed reading to cut background.
As to `Cc1cc(Nc2nccc(C(F)(F)F)n2)cc(-c2ccnc(N[C@H]3CCC(=O)NC3)c2)c1` [Example 15.67, (5S)-5-{[4-(3-methyl-5-{[4-(trifluoromethyl)pyrimidin-2-yl]amino}phenyl)pyridin-2-yl]amino}piperidin-2-one], the IC50 is less than 100 nM.
With `Cc1cc(Nc2nccc(C(F)(F)F)n2)cc(-c2ccnc(N3CCCC(F)(F)C3)c2)c1` [Example 15.68, N-{3-[2-(3,3-difluoropiperidin-1-yl)pyridin-4-yl]-5-methylphenyl}-4-(trifluoromethyl)pyrimidin-2-amine], the IC50 fell in the range of 100 to 1000 nM.
In the case of `COCC1CCCN1c1cc(-c2cc(C)cc(Nc3nccc(C(F)(F)F)n3)c2)ccn1` (centres unmarked) [Example 15.69, N-(3-{2-[2-(methoxymethyl)pyrrolidin-1-yl]pyridin-4-yl}-5-methylphenyl)-4-(trifluoromethyl)pyrimidin-2-amine], the IC50 was in the range of 100 to 1000 nM.
As for `Cc1cc(Nc2nccc(C(F)(F)F)n2)cc(-c2ccnc(N3CCC(F)(F)CC3)c2)c1` [Example 15.70, N-{3-[2-(4,4-difluoropiperidin-1-yl)pyridin-4-yl]-5-methylphenyl}-4-(trifluoromethyl)pyrimidin-2-amine], the IC50 was 100 to 1000 nM.
`Cc1cc(Nc2nccc(C(F)(F)F)n2)cc(-c2ccnc(N3CC(C)NC(C)C3)c2)c1` (centres unmarked) [Example 15.71, N-{3-[2-(3,5-dimethylpiperazin-1-yl)pyridin-4-yl]-5-methylphenyl}-4-(trifluoromethyl)pyrimidin-2-amine]: the IC50 was less than 100 nM.
Consider `Cc1cc(Nc2nccc(C(F)(F)F)n2)cc(-c2ccnc(NCC(C)O)c2)c1` (centres unmarked) [Example 15.72, 1-{[4-(3-methyl-5-{[4-(trifluoromethyl)pyrimidin-2-yl]amino}phenyl)pyridin-2-yl]amino}propan-2-ol], for which the IC50 was less than 100 nM.
The same measure for `Cc1cc(Nc2nccc(C(F)(F)F)n2)cc(-c2ccnc(N3CCC[C@H]3C(N)=O)c2)c1` [Example 15.73, 1-[4-(3-methyl-5-{[4-(trifluoromethyl)pyrimidin-2-yl]amino}phenyl)pyridin-2-yl]-L-prolinamide]: less than 100 nM; for `Cc1cc(Nc2nccc(C(F)(F)F)n2)cc(-c2ccnc(NC3CNC(=O)C3)c2)c1` (centres unmarked) [Example 15.74, 4-{[4-(3-methyl-5-{[4-(trifluoromethyl)pyrimidin-2-yl]amino}phenyl)pyridin-2-yl]amino}pyrrolidin-2-one]: less than 100 nM; for `CC(=O)N1CCCN(c2cc(-c3cc(C)cc(Nc4nccc(C(F)(F)F)n4)c3)ccn2)CC1` [Example 15.75, N-{3-[2-(4-acetyl-1,4-diazepan-1-yl)pyridin-4-yl]-5-methylphenyl}-4-(trifluoromethyl)pyrimidin-2-amine]: 100 to 1000 nM.
Take `CCCN1CCCN(c2cc(-c3cc(C)cc(Nc4nccc(C(F)(F)F)n4)c3)ccn2)CC1` [Example 15.76, N-{3-methyl-5-[2-(4-propyl-1,4-diazepan-1-yl)pyridin-4-yl]phenyl}-4-(trifluoromethyl)pyrimidin-2-amine]: the IC50 is less than 100 nM.
Under `COCC1CCN(c2cc(-c3cc(C)cc(Nc4nccc(C(F)(F)F)n4)c3)ccn2)C1` (centres unmarked) [Example 15.77, N-(3-{2-[3-(methoxymethyl)pyrrolidin-1-yl]pyridin-4-yl}-5-methylphenyl)-4-(trifluoromethyl)pyrimidin-2-amine] stands 100 to 1000 nM.
Consider `CNC(=O)CCNc1cc(-c2cc(C)cc(Nc3nccc(C(F)(F)F)n3)c2)ccn1` [Example 15.78, N-methyl-N~3~-[4-(3-methyl-5-{[4-(trifluoromethyl)pyrimidin-2-yl]amino}phenyl)pyridin-2-yl]-beta-alaninamide], for which the IC50 lay in the range of 100 to 1000 nM.
In the case of `CCCOC1CCCN(c2cc(-c3cc(C)cc(Nc4nccc(C(F)(F)F)n4)c3)ccn2)C1` (centres unmarked) [Example 15.79, N-{3-methyl-5-[2-(3-propoxypiperidin-1-yl)pyridin-4-yl]phenyl}-4-(trifluoromethyl)pyrimidin-2-amine], the IC50 lay within 1000 to 10000 nM.
For the compound `CC(=O)NCCCNc1cc(-c2cc(C)cc(Nc3nccc(C(F)(F)F)n3)c2)ccn1` [Example 15.80, N-(3-{[4-(3-methyl-5-{[4-(trifluoromethyl)pyrimidin-2-yl]amino}phenyl)pyridin-2-yl]amino}propyl)acetamide], the IC50 is 100 to 1000 nM.
As for `Cc1cc(Nc2nccc(C(F)(F)F)n2)cc(-c2ccnc(NCC(=O)N(C)C)c2)c1` [Example 15.82, N,N-dimethyl-N~2~-[4-(3-methyl-5-{[4-(trifluoromethyl)pyrimidin-2-yl]amino}phenyl)pyridin-2-yl]glycinamide], the IC50 was in the range of 100 to 1000 nM.
In the case of `Cc1cc(Nc2nccc(C(F)(F)F)n2)cc(-c2ccnc(NCC3CCC(=O)N3)c2)c1` (centres unmarked) [Example 15.83, 5-({[4-(3-methyl-5-{[4-(trifluoromethyl)pyrimidin-2-yl]amino}phenyl)pyridin-2-yl]amino}methyl)pyrrolidin-2-one], the IC50 is less than 100 nM.
As to `Cc1cc(Nc2nccc(C(F)(F)F)n2)cc(-c2ccnc(N3CC4CNC(CO)C4C3)c2)c1` (centres unmarked) [Example 15.84, {5-[4-(3-methyl-5-{[4-(trifluoromethyl)pyrimidin-2-yl]amino}phenyl)pyridin-2-yl]octahydropyrrolo[3,4-c]pyrrol-1-yl}methanol], the IC50 lay within 1000 to 10000 nM.
Under `Cc1cc(Nc2nccc(C(F)(F)F)n2)cc(-c2ccnc(N3CC(C)NC(C)C3)c2)c1` (centres unmarked) [Example 15.85, N-{3-[2-(3,5-dimethylpiperazin-1-yl)pyridin-4-yl]-5-methylphenyl}-4-(trifluoromethyl)pyrimidin-2-amine] stands less than 100 nM; under `Cc1cc(Nc2nccc(C(F)(F)F)n2)cc(-c2ccnc(N3CCC(C(=O)O)CC3)c2)c1` [Example 15.87, 1-[4-(3-methyl-5-{[4-(trifluoromethyl)pyrimidin-2-yl]amino}phenyl)pyridin-2-yl]piperidine-4-carboxylic acid], less than 100 nM; under `Cc1cc(Nc2nccc(C(F)(F)F)n2)cc(-c2cncc(C(=O)NCC(O)CO)c2)c1` (centres unmarked) [Example 15.90, N-(2,3-dihydroxypropyl)-5-(3-methyl-5-{[4-(trifluoromethyl)pyrimidin-2-yl]amino}phenyl)pyridine-3-carboxamide], less than 100 nM.
`Cc1cc(Nc2nccc(C(F)(F)F)n2)cc(-c2ccc(C(=O)NS(C)(=O)=O)nc2)c1` [Example 16.1, N-(methylsulfonyl)-5-(3-methyl-5-{[4-(trifluoromethyl)pyrimidin-2-yl]amino}phenyl)pyridine-2-carboxamide]: the IC50 was less than 100 nM.
Under `Cc1cc(Nc2nccc(C(F)(F)F)n2)cc(-c2ccc(C(=O)NS(N)(=O)=O)nc2)c1` [Example 16.2] stands less than 100 nM.
As to `Cc1cc(Nc2nccc(C(F)(F)F)n2)cc(-c2ccc(C(=O)N3CCOC3=O)nc2)c1` [Example 16.3, 3-{[5-(3-Methyl-5-{[4-(trifluoromethyl)pyrimidin-2-yl]amino}phenyl)pyridin-2-yl]carbonyl}-1,3-oxazolidin-2-one], the IC50 was less than 100 nM.
The same measure for `Cc1cc(Nc2nccc(C(F)(F)F)n2)cc(-c2ccc(C(=O)N3CCNC(=O)C3)nc2)c1` [Example 16.4, 4-{[5-(3-Methyl-5-{[4-(trifluoromethyl)pyrimidin-2-yl]amino}phenyl)pyridin-2-yl]carbonyl}piperazin-2-one]: less than 100 nM.
With `Cc1cc(Nc2nccc(C(F)(F)F)n2)cc(-c2ccc(C(=O)NCCO)nc2)c1` [Example 16.5, N-(2-hydroxyethyl)-5-(3-methyl-5-{[4-(trifluoromethyl)pyrimidin-2-yl]amino}phenyl)pyridine-2-carboxamide], the IC50 is less than 100 nM.
For `Cc1cc(Nc2nccc(C(F)(F)F)n2)cc(-c2ccc(C(=O)N(C)CCO)nc2)c1` [Example 16.6, N-(2-hydroxyethyl)-N-methyl-5-(3-methyl-5-{[4-(trifluoromethyl)pyrimidin-2-yl]amino}phenyl)pyridine-2-carboxamide], the IC50 was less than 100 nM.
Consider `Cc1cc(Nc2nccc(C(F)(F)F)n2)cc(-c2ccc(C(=O)NC(C)CO)nc2)c1` (centres unmarked) [Example 16.7, N-(2-hydroxy-1-methylethyl)-5-(3-methyl-5-{[4-(trifluoromethyl)pyrimidin-2-yl]amino}phenyl)pyridine-2-carboxamide], for which the IC50 was less than 100 nM.
As to `Cc1cc(Nc2nccc(C(F)(F)F)n2)cc(-c2ccc(C(=O)NC3(CO)CC3)nc2)c1` [Example 16.8, N-[1-(hydroxymethyl)cyclopropyl]-5-(3-methyl-5-{[4-(trifluoromethyl)pyrimidin-2-yl]amino}phenyl)pyridine-2-carboxamide], the IC50 lay within 100 to 1000 nM.
Regarding `CCC(CO)NC(=O)c1ccc(-c2cc(C)cc(Nc3nccc(C(F)(F)F)n3)c2)cn1` (centres unmarked) [Example 16.9, N-[1-(hydroxymethyl)propyl]-5-(3-methyl-5-{[4-(trifluoromethyl)pyrimidin-2-yl]amino}phenyl)pyridine-2-carboxamide], the IC50 lay in the range of 100 to 1000 nM.
On to `Cc1cc(Nc2nccc(C(F)(F)F)n2)cc(-c2ccc(C(=O)NCC(C)(C)O)nc2)c1` [Example 16.10, N-(2-hydroxy-2-methylpropyl)-5-(3-methyl-5-{[4-(trifluoromethyl)pyrimidin-2-yl]amino}phenyl)pyridine-2-carboxamide], for which the IC50 lay within 100 to 1000 nM.
`Cc1cc(Nc2nccc(C(F)(F)F)n2)cc(-c2ccc(C(=O)NC(C)(C)CO)nc2)c1` [Example 16.11, N-(2-hydroxy-1,1-dimethylethyl)-5-(3-methyl-5-{[4-(trifluoromethyl)pyrimidin-2-yl]amino}phenyl)pyridine-2-carboxamide]: the IC50 lay in the range of 100 to 1000 nM.
With `Cc1cc(Nc2nccc(C(F)(F)F)n2)cc(-c2ccc(C(=O)N3CCN(C)CC3)nc2)c1` [Example 16.12, N-(3-methyl-5-{6-[(4-methylpiperazin-1-yl)carbonyl]pyridin-3-yl}phenyl)-4-(trifluoromethyl)pyrimidin-2-amine], the IC50 is 100 to 1000 nM.
